B1: RNase inhibitor: murine RNAse inhibitor purchased from New England Biolabs, added to CFPS reactions (protein, UniProt Q91VI7 1-456, looked up)
Ribonuclease inhibitor: MSLDIQCEQLSDARWTELLPLIQQYEVVRLDDCGLTEVRCKDISSAVQANPALTELSLRTNELGDGGVGLVLQGLQNPTCKIQKLSLQNCGLTEAGCGILPGMLRSLSTLRELHLNDNPMGDAGLKLLCEGLQDPQCRLEKLQLEYCNLTATSCEPLASVLRVKADFKELVLSNNDLHEPGVRILCQGLKDSACQLESLKLENCGITAANCKDLCDVVASKASLQELDLSSNKLGNAGIAALCPGLLLPSCKLRTLWLWECDITAEGCKDLCRVLRAKQSLKELSLASNELKDEGARLLCESLLEPGCQLESLWIKTCSLTAASCPYFCSVLTKSRSLLELQMSSNPLGDEGVQELCKALSQPDTVLRELWLGDCDVTNSGCSSLANVLLANRSLRELDLSNNCMGGPGVLQLLESLKQPSCTLQQLVLYDIYWTNEVEEQLRALEEERPSLRIIS

Tested on: E. coli-based CFPS of GFP
Test: Cell-free protein synthesis (CFPS) of model protein GFP in presence of additives
Type: biochemical
Description: CFPS reactions took place in a 96-well plate at 37° C. for 2 hours. PANOxSP was used as an energy source (25% reaction volume of the cell extract, 1.2 nM plasmid, 12 to 15 mM magnesium glutamate, 1 mM 1,4-diaminobutane, 1.5 mM Spermidine, 33.3 mM phosphoenolpyruvate, 10 mM ammonium glutamate, 175 mM potassium glutamate, 2.7 mM potassium oxalate, 0.33 mM nicotinamide adenine dinucleotide, 0.27 mM coenzyme A, 1.2 mM ATP, 0.86 mM CTP, 0.86 mM GTP, 0.86 mM UTP, 0.17 mM folinic acid, 2 mM of all canonical amino acids with the exception of glutamic acid^81. Expressed protein was quantified by addition of 5 μM radiolabeled (U-14C) leucine (PerkinElmer, Waltham, Mass.) to the CFPS reaction. Varying concentrations (0 to 200 μM) of ligands were added to the CFPS reaction. In case of human sample testing, 20% and 10% of whole blood and urine (v/v), respectively were added to the CFPS in addition to the EDC ligands.
Initially, we hypothesized that urea is the main component to hinder protein synthesis in urine samples. The urea concentration in human samples is in a range of 0.1 to 0.8 M^88-89 with the average being 0.22 M^90. To understand the effect of urea on CFPS, we synthesized the model protein GFP in the presence of urea at concentrations between 0.001 to 1 M (FIG. 23). […] Error bars represent one standard deviation for n=3. […] Even reactions with 0.5 M urea retained 40% protein synthesis capability.
We next hypothesized that RNase activity hinders protein synthesis in both urine and blood samples^91,92,93. To test this hypothesis, we performed CFPS of GFP in the presence of urine and blood, and added murine RNase inhibitor as shown in FIGS. 24A and 24B. FIGS. 24A and 24B show the effect of RNase inhibitor on CFPS of GFP in the presence of urine (top) and blood (bottom). The lighter bars in both graphs represent the improvements in protein production in the presence of urine or blood with the addition of RNase inhibitor. The error bars represent one standard deviation for n=3. […] For instance, for 20% by volume urine sample, the GFP production yield increased from less than 10% to more than 30%. The improvement was more significant for blood samples, as 10% by volume blood eliminated protein synthesis, but even 45% by volume blood in CFPS containing RNase inhibitor retained 50% protein synthesis yield. […] Adding RNase inhibitors to CFPS reactions facilitates synthesis of sufficient biosensor protein to detect ligands in up to 25% and 45% by volume urine and blood, respectively. These higher volume percentages help to detect lower concentrations of ligands in the samples.

Row | Molecule | effect on CFPS performance (0.1 M urea) | retained protein synthesis capability (0.5 M urea) [%] | GFP production yield (20% by volume urine, with RNase inhibitor (less than 10% without)) | retained protein synthesis yield (45% by volume blood, with RNase inhibitor) [%]
1 | NC(N)=O [urea] | doesn't have a significant effect | 40 | – | –
2 | B1 | – | – | more than 30% | 50
